The values below come from patent publication EP0804147B1, “DERMATO-COSMETOLOGIC COMPOSITION” (PIERRE FABRE DERMO-COSMETIQUE, priority 1994, dated 1995).

Where two headings read alike, the source gives them in different places.

Test [1] is described as follows: Water retention capacity of skin flaps (stratum corneum samples soaked in active solution, dried, rehydrated; desorbed water quantified by GC-MS). Conditions: 90% d'humidité relative. The source says: Des échantillons de stratum corneum sont immergés pendant 24 heures dans une solution de l'actif à analyser. Ils sont ensuite séchés pendant 24 heures dans un dessicateur sur silicagel puis réhydratés pendant 48 heures dans une enceinte à 90% d'humidité relative.
Ces échantillons sont analysés après l'étape de séchage et après l'étape de réhydratation. La technique utilisée est la chromatographie en phase gazeuse couplée à la spectrométrie de masse.
Les échantillons de peau pesés sont placés dans un four chauffé à 100°C, la vapeur d'eau désorbée est entrainée par un gaz de balayage sec vers le chromatographe où elle sera détectée.
Un spectre est obtenu en sortie de l'appareil. L'eau désorbée est quantifiée par la mesure de l'aire du pic. Le spectromètre de masse couplé à la CPG permet de s'assurer que le composé désorbé et quantifié est bien de l'eau.
Cette technique allie donc une analyse qualitative à une analyse quantitative. Les résultats sont donnés en pourcentage d'eau retenue et permettent donc d'évaluer le pouvoir hygroscopique des produits.
Les résultats sont présentés sur la figure 1.

The test system of another test is Corynébactéries. Conditions: bacteria involved in body odour (armpits).
Test [2] relates to contaminations microbiennes. The note with it: cream containing 13%, no other preservative.
For test [3] the following is noted: for effet hydratant: topical on forearm, 0-6 h. The text has this:
La spectroscopie infrarouge in vivo est une technique non invasive, rapide et de grande sensibilité. Les molécules absorbent toutes différemment le rayonnement infrarouge. C'est en analysant leur spectre d'absorption que l'on peut retrouver la structure de la molécule.
En fonction de l'application de divers traitements, des liaisons entre l'eau apportée et la peau se créent et entraînent des modifications de certaines bandes d'absorption.
Ainsi seront analysés sur le spectre les pics suivants : • le pic d'absorption dû à l'élongation de la liaison OH de l'eau à 2100 cm-1. Les variations d'intensité de ce pic ne sont pas visibles à l'oeil nu mais elles sont significatives et donc enregistrées. • le pic d'absorption dû à l'élongation des liaisons amide I à 1640 cm-1. L'élongation de cette liaison se trouve modifiée lorsque des liaisons hydrogènes se créent par apport d'eau. • le pic d'absorption dû à l'élongation des liaisons amide II à 1540 cm-1. Ce pic n'est influencé par la présence d'eau que de façon négligeable; il est donc utilisé pour pondérer les deux pics précédents.
Les préparations cosmétiques à tester sont appliquées sur une zone délimitée de l'avant-bras. Une zone non traitée est conservée comme témoin.
Pour chaque spectre obtenu sont mesurés les rapports suivants : (amideI)/(amideII)appelé facteur d'hydratation (ou MF); (eau)/(amideII) [formula]
Ces rapports sont calculés aux temps 0, 1, 2, ..., 6 heures et les courbes suivantes sont tracées : MF témoin(t) - MF bras traité(t) = f(t) avec t, représentant le temps en heures.; (eau)/(amideII)témoin(t) -(eau)/(amideII)bras traité(t) = f(t) [formula]
L'allure de ces courbes est ensuite comparée. En effet, le pic des amides I pourrait être directement influencé par le produit appliqué alors que le pic à 2100 cm-1 n'est influencé que par l'eau.
Si les deux courbes obtenues évoluent dans le même sens, on peut considérer que la variation enregistrée rend bien compte de la fixation de l'eau sur la peau. Dans le cas contraire, il faut émettre des réserves sur les conclusions à apporter.
On teste par cette technique des crèmes contenant 5% et 13% de glycolate de guanidine, de formules suivantes (les pourcentages sont exprimés en p/p) :
Les effets sont comparés avec ceux de compositions contenant : • 15% glycérol • 5% glycérol • 13% lactate d'ammonium • 5% lactate d'ammonium.

The conditions of test [4]: compared with lactate d'ammonium.

`OCC(O)CO` [glycérol] gave an eau retenue in test [1] (skin treated with 15% solution) of 125%.
`CC(O)C(=O)O` (stereo not shown) [lactate d'ammonium]: the eau retenue in test [1] (skin treated with 13% solution) is on record as 135%.
With glycolate de guanidine, in the test with Corynébactéries, the “activité bactéricide” value is “actif sur des bactéries impliquées dans la formation d'odeurs corporelles”. In addition, the “protection contre les contaminations microbiennes (conservateur)” value in test [2] was “s'auto-protège contre les contaminations microbiennes”. For the same molecule, in test [1] (skin treated with 13% solution), the eau retenue came to 300%. For the same molecule, the effet hydratant result in test [3] (cream containing 5% (formula B), figure 3) was “beaucoup plus hydratante que celle contenant 5% de glycérol”; in test [3] (cream containing 13% (formula A), figure 2), “beaucoup plus hydratante que le placebo et que la crème contenant 13% de lactate d'ammonium”. In addition, the “durée de la différence d'hydratation” value in test [3] (cream containing 5% vs 5% glycérol cream) is greater than 6 heures; in test [3] (cream containing 13% vs placebo and 13% lactate d'ammonium cream) it was greater than 6 heures. The “propriétés kératorégulatrices” value in test [4] is recorded as “supérieures à celles du lactate d'ammonium”.
